Assay [1] deals with T1, recombinant TMPRSS2 (rTMPRSS2) (Homo sapiens, UniProt O15393).
T1 construct: The expression vector, encoding the serine protease domain of TMPRSS2, a His-tag and a secretion signal; His-tag; secretion signal; made in house; host or cells: HEK293T cells, transient transfection; unpurified cell medium used
The assay can be described thus: Inhibitor screening assay with medium containing recombinant TMPRSS2 (trypsin-like activity, Boc-QAR-AMC substrate, fluorescence). Type of assay: biochemical. Particulars: 15 minutes of incubation at 37°C, 30 µM Boc-QAR-AMC, read-out: Inhibitory effect (%): percentage of inhibited trypsin-like activity.
Method: Cell medium containing the TMPRSS2 serine protease domain was collected 4 days post-transfection and trypsin-like activity was determined as described above.
On the one hand, intact prostasomes and on the other hand, medium containing recombinant TMPRSS2 (rTMPRSS2) were used. The prostasome suspension and rTMPRSS2 were diluted so that less than 10% substrate conversion was observed after 30 minutes of measurement and trypsin-like activities of both preparations were similar (approximately 0.025 U/L). The inhibitors were added to the samples in concentrations of 10 µM, 1 µM and 100 nM, followed by 15 minutes of incubation at 37°C. The substrate, Boc-QAR-AMC (Bachem), was added in a final concentration of 30 µM. This concentration was determined to be the Michaelis-Menten constant for Boc-QAR-AMC and recombinant TMPRSS2. Fluorescence was measured kinetically at 37°C for 20 minutes on a Tecan F200 multi-plate reader at an excitation and emission wavelength of 380 nm and 465 nm, respectively. The inhibitory effect was calculated by dividing the trypsin-like activity without inhibitor by the activity with inhibitor and was expressed as percentage inhibition.

The next assay addresses T2, TMPRSS2 in prostasomes (Homo sapiens, UniProt O15393).
T2 construct: Prostasomes or extracellular vesicles were isolated from semen samples using ultracentrifugation and size-exclusion chromatography; from tissue; host or cells: prostasomes (extracellular vesicles) from pooled semen samples
The assay can be described thus: Inhibitor screening assay with intact prostasomes (trypsin-like activity, Boc-QAR-AMC substrate, fluorescence). Type of assay: biochemical. Particulars: 15 minutes of incubation at 37°C, 30 µM Boc-QAR-AMC, read-out: Inhibitory effect (%): percentage of inhibited trypsin-like activity.

Where a name gives a salt, the structure may show the parent alone.

T2 sequence (O15393 256-492 limits assumed): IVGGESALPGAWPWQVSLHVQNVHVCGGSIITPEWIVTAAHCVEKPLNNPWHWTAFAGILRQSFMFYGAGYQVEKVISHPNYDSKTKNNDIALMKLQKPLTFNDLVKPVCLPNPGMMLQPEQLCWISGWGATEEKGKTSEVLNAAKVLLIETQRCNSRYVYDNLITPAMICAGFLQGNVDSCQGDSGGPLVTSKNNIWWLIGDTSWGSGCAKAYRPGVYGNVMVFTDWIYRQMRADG
T2 sequence (O15393 1-255 limits assumed): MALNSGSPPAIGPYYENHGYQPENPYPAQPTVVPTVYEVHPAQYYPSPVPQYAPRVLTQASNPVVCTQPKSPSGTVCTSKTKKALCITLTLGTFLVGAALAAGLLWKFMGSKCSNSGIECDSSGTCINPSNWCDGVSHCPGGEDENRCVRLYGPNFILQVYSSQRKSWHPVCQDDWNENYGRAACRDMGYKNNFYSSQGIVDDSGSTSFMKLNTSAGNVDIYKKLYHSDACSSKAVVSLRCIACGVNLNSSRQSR
T1 sequence (O15393 256-492 limits assumed): as the sequence (O15393 256-492 limits assumed) above
Method for TMPRSS2 in prostasomes: Trypsin-like activity in the intact prostasomes was determined using 100 µM Boc-QAR-AMC (Bachem) in 50 mM Tris 120 mM NaCl pH 8,0. Fluorescence was measured kinetically at 37°C for 20 minutes on a Tecan F200 multi-plate reader at an excitation and emission wavelength of 380 nm and 465 nm, respectively.
On the one hand, intact prostasomes and on the other hand, medium containing recombinant TMPRSS2 (rTMPRSS2) were used. The prostasome suspension and rTMPRSS2 were diluted so that less than 10% substrate conversion was observed after 30 minutes of measurement and trypsin-like activities of both preparations were similar (approximately 0.025 U/L). The inhibitors were added to the samples in concentrations of 10 µM, 1 µM and 100 nM, followed by 15 minutes of incubation at 37°C. The substrate, Boc-QAR-AMC (Bachem), was added in a final concentration of 30 µM. […] Fluorescence was measured kinetically at 37°C for 20 minutes on a Tecan F200 multi-plate reader at an excitation and emission wavelength of 380 nm and 465 nm, respectively. The inhibitory effect was calculated by dividing the trypsin-like activity without inhibitor by the activity with inhibitor and was expressed as percentage inhibition.

With `CN(C)C(=O)COC(=O)Cc1ccc(OC(=O)c2ccc(NC(=N)N)cc2)cc1` [Camostat, camostat mesylate], the inhibition at 0.1 µM worked out at 73% in assay [1] (100 nM inhibitor) and 99% at TMPRSS2 in prostasomes (100 nM inhibitor). For the same molecule, the inhibition at 1 µM in assay [1] (1 µM inhibitor) stood at 88%; on TMPRSS2 in prostasomes (1 µM inhibitor), 100%. Also, the inhibition at 10 µM (in assay [1] (10 µM inhibitor); at TMPRSS2 in prostasomes (10 µM inhibitor)) was 100% throughout.
